According to patent publication US10654820B2, “Crystal form of tasimelteon” (ZHEJIANG JINGXIN PHARMACEUTICAL CO., LTD., priority 2016, dated 2020):
≈ marks a conversion by molar mass, not a printed value. Entries after “also recorded” stand apart in the source; their conditions may differ.

Legend:
[1] = tested on: totally blind subjects diagnosed with non-24; settings: cited from earlier work
[2] = Thermogravimetric analysis (TGA), thermal stability; type: physicochemical; settings: for thermal stability: result in words
Description: Thermogravimetric Analysis (TGA)
TGA was performed on a TA instruments SDT Q600 thermogravimetric analyzer. The samples were heated over the temperature range room temperature of 30-365° C. at a constant heating rate of 10° C./min. The samples were purged with a stream of flowing nitrogen at 120 ml/min throughout the experiment.

[3] = Intrinsic dissolution studies in water; type: physicochemical; settings: 37° C., 150 r.p.m., compressed disk
Description: Example 23 Intrinsic Dissolution Studies
200 mg of crystal form I or crystal form II was taken in the intrinsic attachment and compressed to a 1.33 cm^2 and 0.1 cm thick of disk using a hydraulic press at a pressure of 9 MPa for 60 s. The intrinsic attachment was placed in a jar of 100 mL of water to 37° C. and rotated at 150 r.p.m. 1 milliliter of the aliquot each is collected at specific time intervals and blank medium of the same volume and temperature is added, and the absorbance at max (281 nm) is measured, and the cumulative dissolution rate is calculated to plot the concentration-time standard curves of the respective compounds.

[4] = Solubility in water at 37° C. (equilibrium solubility, 72 hours, absorbance at 281 nm); type: physicochemical; settings: balanced for 72 hours
Description: Example 22 Solubility in Water at 37° C.
Move 25 ml water into a 50 ml eggplant bottle separately, add crystal form I and crystal form II Tasimelteon separately, stir in a constant temperature oil bath to balance for 72 hours, and then filtrate by 0.45 microporous membrane. The filtrate is diluted by water. The water solubilities of crystal form I and crystal form II at 37° C. were determined by calculating each sample concentration of its saturated solution determined through measuring absorbance at λmax (281 nm). Standard curve method is used to calculate the equilibrium solubility.

Row | Structure (SMILES) | proportion of individuals becoming entrained to the 24-hour cycle ([1]; physiologic monitoring, compared with placebo) | efficacy on nighttime wakefulness and daytime napping ([1]; totally blind subjects diagnosed with non-24) | thermal stability [2] | intrinsic dissolution rate ([3]; FIG. 9) | intrinsic dissolution rate ([3]; FIG. 9, listed as form I) | solubility at 72 h ([4]; 37 °C, thermodynamic from solid) [µg/mL] | decomposition temperature (TGA) ([2]; heating rate of 10° C./min, nitrogen) | water solubility [4] [µg/mL]
1 | CCC(=O)NC[C@@H]1C[C@H]1c1cccc2c1CCO2 [Tasimelteon, (1R-2R)—N-[2-(2,3-dihydrobenzofuran-4-yl)cyclopropylmethyl]propanamide] | higher proportion of individuals becoming entrained to the 24-hour cycle compared with placebo | reducing both nighttime wakefulness and daytime napping |  |  |  |  |  | 
2 | CCC(=O)NC[C@@H]1C[C@H]1c1cccc2c1CCO2 [crystal form I, (1R-2R)—N-[2-(2,3-dihydrobenzofuran-4-yl)cyclopropylmethyl]propanamide] |  |  | good thermal stability | high | good dissolution rate | 81 (≈ 330 µM) |  | 
3 | CCC(=O)NC[C@@H]1C[C@H]1c1cccc2c1CCO2 [crystal form II, (1R-2R)—N-[2-(2,3-dihydrobenzofuran-4-yl)cyclopropylmethyl]propanamide] |  |  | good thermal stability | high in water, especially for crystal form II compared to crystal form I; also recorded: good dissolution rate, especially for crystal form II compared to form I |  |  | approximately 200 °C | 104 (≈ 424 µM)
